Experimental data reported in ChEMBL document CHEMBL4038292 (Bioorg Med Chem Lett, 2017).
Activity calls are given as the source filed them. The rule behind the calls is not given here.

Assays:
Mu-type opioid receptor = Mu-type opioid receptor (Rattus norvegicus, UniProt P33535); assay: Displacement of [3H]DAMGO from mu-opioid receptor in Wistar rat brain membrane after 1 hr by microbeta scintillation counting method; type: cell membranes
[1] = target: Delta-type opioid receptor (Rattus norvegicus, UniProt P33533); assay: Displacement of [3H]DPDPE from delta-opioid receptor in Wistar rat brain membrane after 3 hrs by microbeta scintillation counting method; type: cell membranes
Delta-type opioid receptor, sequence (P33533 whole entry): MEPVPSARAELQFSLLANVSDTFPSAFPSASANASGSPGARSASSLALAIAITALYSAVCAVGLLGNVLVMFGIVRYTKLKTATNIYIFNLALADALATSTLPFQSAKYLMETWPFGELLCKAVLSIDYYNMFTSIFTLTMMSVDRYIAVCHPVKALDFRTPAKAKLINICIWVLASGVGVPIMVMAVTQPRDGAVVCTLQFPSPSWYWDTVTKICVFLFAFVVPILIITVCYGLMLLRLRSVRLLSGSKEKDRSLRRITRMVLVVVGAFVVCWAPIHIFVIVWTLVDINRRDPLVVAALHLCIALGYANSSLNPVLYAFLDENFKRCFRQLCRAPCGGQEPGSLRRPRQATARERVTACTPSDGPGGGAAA

[2] = Half life in Kunming mouse brain homogenate at 500 uM by RP-HPLC method; type: ADME, tissue-based
[3] = Half life in Kunming mouse plasma at 500 uM by RP-HPLC method; type: ADME, cell-free
Mus musculus [4] = assay: Antinociceptive activity in mouse model of thermal-induced nociception assessed as increase in latency to tail withdrawal at 10 nmol/kg, icv measured up to 50 mins by tail flick test; type: functional
Mus musculus [5] = assay: Antinociceptive activity in mouse model of thermal-induced nociception assessed as increase in latency to tail withdrawal at 5 mg/kg, sc measured up to 50 mins by tail flick test; type: functional, organism-based
Rattus norvegicus = organism: Rattus norvegicus; assay: Selectivity ratio of Ki for displacement of [3H]DPDPE from delta-opioid receptor in Wistar rat membrane to Ki for displacement of [3H]DAMGO from mu-opioid receptor in Wistar rat brain membrane; type: cell membranes
Mus musculus [6] = assay: Antinociceptive activity in mouse model of thermal-induced nociception assessed as increase in latency to tail withdrawal at 10 nmol/kg, icv measured 10 to 80 mins post dose by tail flick test relative to control; type: functional
Mus musculus [7] = assay: Antinociceptive activity in mouse model of thermal-induced nociception assessed as increase in latency to tail withdrawal at 2.5 nmol/kg, icv measured up to 60 mins by tail flick test; type: functional
Mus musculus [8] = assay: Antinociceptive activity in mouse model of thermal-induced nociception assessed as increase in latency to tail withdrawal at 10 mg/kg, sc measured up to 90 mins by tail flick test; type: functional, organism-based
[9] = Effect on human sperm motility at 10^-5 mol/L measured immediately post dose by Makler counting chamber method (reference value: 70 +/- 4.2%); type: ADME, cell-based; details: 10 µM
[10] = Effect on human sperm motility at 10^-6 mol/L measured immediately post dose by Makler counting chamber method (reference value: 70 +/- 4.2%); type: ADME, cell-based; details: 1 µM
[11] = Effect on human sperm motility at 10^-7 mol/L measured immediately post dose by Makler counting chamber method (reference value: 70 +/- 4.2%); type: ADME, cell-based; details: 0.1 µM
[12] = Effect on human sperm motility at 10^-5 mol/L measured at 10 mins post dose by Makler counting chamber method (reference value: 69 +/- 4.7%); type: ADME, cell-based; details: 10 µM
[13] = Effect on human sperm motility at 10^-6 mol/L measured at 10 mins post dose by Makler counting chamber method (reference value: 69 +/- 4.7%); type: ADME, cell-based; details: 1 µM
[14] = Effect on human sperm motility at 10^-7 mol/L measured at 10 mins post dose by Makler counting chamber method (reference value: 69 +/- 4.7%); type: ADME, cell-based; details: 0.1 µM
[15] = Effect on human sperm motility at 10^-5 mol/L measured at 30 mins post dose by Makler counting chamber method (reference value: 66.9 +/- 4.6%); type: ADME, cell-based; details: 0.5 h, 10 µM
[16] = Effect on human sperm motility at 10^-6 mol/L measured at 30 mins post dose by Makler counting chamber method (reference value: 66.9 +/- 4.6%); type: ADME, cell-based; details: 0.5 h, 1 µM
[17] = Effect on human sperm motility at 10^-7 mol/L measured at 30 mins post dose by Makler counting chamber method (reference value: 66.9 +/- 4.6%); type: ADME, cell-based; details: 0.5 h, 0.1 µM
[18] = Effect on human sperm motility at 10^-5 mol/L measured at 60 mins post dose by Makler counting chamber method (reference value: 64.8 +/- 6.6%); type: ADME, cell-based; details: 1 h, 10 µM
[19] = Effect on human sperm motility at 10^-6 mol/L measured at 60 mins post dose by Makler counting chamber method (reference value: 64.8 +/- 6.6%); type: ADME, cell-based; details: 1 h, 1 µM
[20] = Effect on human sperm motility at 10^-7 mol/L measured at 60 mins post dose by Makler counting chamber method (reference value: 64.8 +/- 6.6%); type: ADME, cell-based; details: 1 h, 0.1 µM
[21] = Effect on human sperm motility at 10^-5 mol/L measured at 90 mins post dose by Makler counting chamber method (reference value: 62.1 +/- 5.7%); type: ADME, cell-based; details: 1.5 h, 10 µM
[22] = Effect on human sperm motility at 10^-6 mol/L measured at 90 mins post dose by Makler counting chamber method (reference value: 62.1 +/- 5.7%); type: ADME, cell-based; details: 1.5 h, 1 µM
[23] = Effect on human sperm motility at 10^-7 mol/L measured at 90 mins post dose by Makler counting chamber method (reference value: 62.1 +/- 5.7%); type: ADME, cell-based; details: 1.5 h, 0.1 µM
Mus musculus [24] = assay: Antinociceptive activity in mouse model of thermal-induced nociception assessed as increase in latency to tail withdrawal at 5 mg/kg, sc measured up to 90 mins by tail flick test; type: functional, organism-based
Mus musculus [25] = assay: Antinociceptive activity in mouse model of thermal-induced nociception assessed as increase in latency to tail withdrawal at 10 nmol/kg, icv measured up to 60 mins by tail flick test; type: functional

Mu-type opioid receptor, sequence (P33535 whole entry): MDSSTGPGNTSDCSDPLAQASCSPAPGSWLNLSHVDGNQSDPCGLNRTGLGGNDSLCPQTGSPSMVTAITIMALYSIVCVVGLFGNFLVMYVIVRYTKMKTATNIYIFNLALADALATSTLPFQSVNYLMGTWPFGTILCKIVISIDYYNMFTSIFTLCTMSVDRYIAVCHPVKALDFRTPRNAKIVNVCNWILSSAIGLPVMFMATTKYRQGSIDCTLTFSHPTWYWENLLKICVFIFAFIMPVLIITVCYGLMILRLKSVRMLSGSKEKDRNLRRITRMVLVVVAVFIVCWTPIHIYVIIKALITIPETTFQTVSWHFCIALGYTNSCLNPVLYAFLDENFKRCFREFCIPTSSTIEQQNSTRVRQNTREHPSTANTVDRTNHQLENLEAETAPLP

Structure (SMILES) | Ki (Mu-type opioid receptor) [nM] | Ki [1] [nM] | half-life at 500 µM [2] [h] | half-life at 500 µM [3] [h] | Activity (Mus musculus [5]) | Ratio Ki (Rattus norvegicus) | Activity [9] [%] | Activity [10] [%] | Activity [11] [%] | Activity [12] [%] | Activity [13] [%] | Activity [14] [%] | Activity [15] [%] | Activity [16] [%] | Activity [17] [%] | Activity [18] [%] | Activity [19] [%] | Activity [20] [%] | Activity [21] [%] | Activity [22] [%] | further results
C[C@@H](NC(=O)[C@@H](N)Cc1ccc(O)cc1)C(=O)NCC(=O)N[C@@H](Cc1ccc(Cl)cc1)C(N)=O | 1.24 | > 1000 | 5.29 | 3.99 | Active | – | – | – | – | – | – | – | – | – | – | – | – | – | – | – | Activity (Mus musculus [4]): Active
N=C(N)N[C@@H](Cc1ccc(O)cc1)C(=O)N1CCC[C@@H]1C(=O)NCC(=O)N[C@@H](Cc1ccccc1)C(N)=O | 247 | 4550 | 4.94 | 3.68 | – | 18.4 | – | – | – | – | – | – | – | – | – | – | – | – | – | – | –
C[C@@H](NC(=O)[C@H](Cc1ccc(O)cc1)NC(=N)N)C(=O)NCC(=O)N[C@@H](Cc1ccccc1)C(N)=O | 0.42 | 840 | 6.07 | 3.87 | – | 2000 | 62.1 | 64.5 | 66.7 | 60.3 | 60.6 | 68.5 | 59.1 | 59.6 | 62.8 | 59 | 58 | 58.6 | 56.5 | 57.3 | MPE (Mus musculus [6]): 90 - 100%; Activity (Mus musculus [7]): Active; Activity (Mus musculus [8]): Active; Activity [23]: 53.2%; Activity (Mus musculus [24]): Active
CN1CC[C@]23c4c5ccc(O)c4O[C@H]2[C@@H](O)C=C[C@H]3[C@H]1C5 [MORPHINE] | – | – | – | – | Active | – | 62.7 | 65.6 | 69.4 | 60.2 | 62.7 | 70.8 | 58.8 | 63 | 67 | 57.6 | 60.7 | 69 | 55.7 | 59.3 | Activity [23]: 57.7%
C[C@@H](NC(=O)[C@@H](N)Cc1ccc(O)cc1)C(=O)NCC(=O)N[C@@H](Cc1ccccc1)C(N)=O | 2.11 | 3800 | 4.33 | 4.38 | Active | 1800 | – | – | – | – | – | – | – | – | – | – | – | – | – | – | Activity (Mus musculus [4]): Active
NC(=O)[C@H](Cc1ccccc1)NC(=O)[C@H](Cc1c[nH]c2ccccc12)NC(=O)[C@@H]1CCCN1C(=O)[C@@H](N)Cc1ccc(O)cc1 [ENDOMORPHIN-1] | – | – | 0.392 | 0.101 | – | – | – | – | – | – | – | – | – | – | – | – | – | – | – | – | Activity (Mus musculus [25]): Active
C[C@@H](NC(=O)[C@H](Cc1ccc(O)cc1)NC(=N)N)C(=O)NCC(=O)N[C@@H](Cc1ccc(Cl)cc1)C(N)=O | 0.35 | 101 | 6.52 | 3.91 | – | 288 | 60.1 | 69.5 | 62.7 | 59.3 | 64.6 | 58.8 | 56.1 | 64.6 | 59 | 55.3 | 72 | 55.2 | 53.5 | 78.3 | MPE (Mus musculus [6]): 90 - 100%; Activity (Mus musculus [7]): Active; Activity (Mus musculus [8]): Active; Activity [23]: 53.2%; Activity (Mus musculus [24]): Active
